Results reported in patent US7166695B2, “Affinity markers for human serum albumin” (ConjuChem Biotechnologies Inc., priority 1997, dated 2007).
Where a SMILES comes first, the peptide text is derived from it. [ ]: non-standard residue; d: D form. The star is where a group is joined. X1 = O=C1N[C@H]2[C@H](CS[C@H]2CCCCC(=O)Oc2ccc(C(=O)*)cc2)N1; Benzoyl(4-OH) = O=C(c1ccc(O)cc1)*

What was measured:
fraction V HSA [1] = molecular target: T1, fraction V HSA (Homo sapiens, UniProt P02768); experiment: Competition ELISA test; assay type: binding
T1 construct: purchased Calbiochem
Procedure: A solution of 100 μL rabbit polyclonal anti-human serum albumin. (Boehringer) diluted at 1/5000 in PBS was coated overnight at 4° C. onto ELISA plates (Nunc). These plates were then saturated with 5% BSA (Sigma) in PBS for 2 h at RT. For the competition test, varying concentrations of HO-Ph-CO-FlYEE-NH2, 44 μM biotin-OPh-CO-FlYEE-NH2, and 15 μM of fraction V HSA were incubated for 1 h at 37° C. To assess the ability of biotin-OPh-CO-FlYEE-NH2 to displace HO-Ph-CO-FlYEE-NH2, varying concentrations of HO-Ph-CO-FlYEE-NH2 were incubated with HSA for 1 h at 37° C., then 44 μM of biotin-OPh-CO-FlYEE-NH2 was added and allowed to incubate at 37° C. for 1 h. The reaction mixtures were then centrifuged through 30 kDa Centricon tubes (Sarthorious) to a volume of 50 μL, diluted with 500 μL of PBS, then re-concentrated to 50 μL. This process was then repeated and transferred to the ELISA plate previously coated with polyclonal anti-human serum albumin (procedure described above). These plates were then rinsed with PBS-Tween 20 (0.05%) three times, then with PBS. Peroxidase-labeled streptavidin (1:500, v/v, in PBS containing 0.05% BSA) was then added to the plates, allowed to incubate for 20 min at RT, rinsed with PBS-Tween 20 (0.05%) three times, and then with PBS. […] The plates were then read on a SpectraMax 250 at λ 490 nm.
FIG. 8 plots optical density as a function of the concentration of HO-Ph-CO-FlYEE-NH2. […] The HSA was captured on an ELISA plate initially coated with polyclonal anti-HSA, treated with peroxidase labeled streptavidin and OD read at 490 nm using SpectraMax 250.
In these experiments, solutions of 0 to 50 molar excess HO-Ph-CO-FlYEE-NH2 and 15 μM fraction V HSA were incubated for 1 h at RT when 44 μM of biotin-OPh-CO-FlYEE-NH2, was added and reaction incubated for 1 h at 37° C. The HSA was captured on an ELISA plate initially coated with polyclonal anti-HSA, treated with peroxidase labeled streptavidin and OD read at 490 nm using SpectraMax 250.

HSA [2] = molecular target: T2, HSA (Homo sapiens, UniProt P02768); experiment: Mass spectral analysis of tryptic digest of HSA:LC-biotin; details: HPLC peaks at 78 and 85 min
Procedure: LC-biotin is biotin-NH—(CH2)5—C(O)—.
The specificity with which biotin-OPh-CO-FlYEE-NH2 reacts with a specific lysine residue on HSA was determined by mass spectral analysis of a tryptic digest of LC-biotin conjugated to HSA by LC-biotin-OPh-CO-FlYEE-NH2 (FIG. 15). Using LC -biotin-OPh-CO-FlYEE-NH2 instead of biotin-OPh-CO-FlYEE-NH2 facilitated a larger mass separation in the mass spectrum and identification of HSA from HSA:LC-biotin. […] This mass accounts only for the addition of one LC-biotin and since the fragment at 78 min contains only one Lys residue and LC-biotin is attached to it, and this peptide sequence contains the previous sequence, the only lysine residue in this sequence where biotin could be attached is Lys519.

HSA [3] = molecular target: T2, HSA; experiment: Kinetic study by ELISA capture in human plasma; assay type: biochemical; details: 100 μM in human plasma, RT, 0-60 min
Procedure: The samples were then allowed to incubate at RT for 0, 5, 10, 15, 30 and 60 min, when 5 μL of each sample was diluted with 295 μL PBS and kept at −20° C. before use. The samples were then diluted to 2 μg/mL using PBS and transferred to an ELISA plate previously coated with polyclonal anti-human serum albumin (procedure described above). The plates were then rinsed with PBS-Tween 20 (0.05%) three times, and then with PBS. Goat polyclonal anti-biotin (Pierce) (1:200, v/v, in PBS containing 0.05% BSA) was then added to the plates, allowed to incubate for 1 h at RT, rinsed with PBS-Tween 20 (0.05%) three times, and then with PBS. The plates were then treated with 100 μL of peroxidase-conjugated rabbit anti-goat IgG (Jackson Immuno Research) diluted 1/100,000 with PBS for 20 min at RT. The plates were then rinsed with PBS-Tween 20 (0.05%) three times, and then with PBS. […] The plates were then read on a SpectraMax 250 at λ 490 nm.
At each time mentioned in the figure, 2 μg/mL of each sample was captured on an ELISA plate initially coated with polyclonal anti-HSA, treated with goat polyclonal anti-biotin, followed by peroxidase conjugated rabbit anti-goat IgG and OD read at 490 nm using SpectraMax 250.

fraction V HSA [4] = molecular target: T1, fraction V HSA; experiment: Kinetic studies using HPLC, reaction with fraction V HSA in PBS; assay type: biochemical; details: 100 μM compound and 600 μM HSA in PBS
Description: (§1) The chromatograms were each integrated using identical data parameters and resulting calculated areas under each peak converted to concentrations and plotted against time.
FIG. 11 plots the rate of disappearance of biotin-OPh-CO—NH2 vs. time and the rate of appearance of the leaving group, HO-Ph-CO—NH2, vs. time.
Due to overlapping peaks in the HPLC chromatogram, the rate of disappearance of biotin-OPh-CO-FlYEE-NH2 cannot be determined.

[5] = molecular target: human serum albumin (HSA) (Homo sapiens, UniProt P02768); experiment: Biotinylation of whole blood, plasma or serum; SDS-PAGE and immunoblot with peroxidase labeled streptavidin; details: 100 or 600 μM, 1 h at 37° C.
Procedure: The reaction samples were allowed to incubate for 1 h at RT or 37° C. For the whole blood sample, the plasma was extracted from whole blood at the end of reaction. […] These additional samples were diluted 1/60 in PBS and analyzed directly on SDS-PAGE, immunoblot, ELISA, or frozen at −20° C. until use. As positive controls, 50 μM of NHS-LC-biotin (Pierce) and 100 μM of D-biotin were used. Protein assay was performed using BCA kit (Pierce).
Proteins were separated by SDS-PAGE under non-reducing conditions (Laemmli, 1970), transferred to 0.1 μM-pore nitrocellulose sheets (Schleicher and Schuell) and probed with peroxidase labeled streptavidin (Jackson Immuno Research).
Whole blood was incubated with biotin ester for 1 h at room temperature, then plasma was extracted by centrifugation. A 5 μg sample was separated by 8% SDS-PAGE and transferred onto blot. The immunoblot was blocked with 5% skim milk (Nestle) and then incubated with peroxidase labeled-streptavidin diluted at 1/5000 in PBS-BSA 0.5% for 20 min at RT. An ECL kit was used to detect peroxidase labeled-streptavidin on Hyperfilm ECL (Amersham), exposed for 1 min.
A 5 μg portion of each sample was separated by 8% SDS-PAGE and transferred onto blot. The immunoblot was blocked with 5% skim milk (Nestle) and then incubated with peroxidase labeled-streptavidin diluted at 1/5000 in PBS-BSA 0.5% for 20 min at RT. […]

dog albumin = molecular target: T3, dog albumin (Canis lupus familiaris, UniProt P49822); experiment: Biotinylation of whole blood; SDS-PAGE and immunoblot with peroxidase labeled streptavidin; assay type: biochemical; details: samples of whole blood
T3 construct: Whole blood was incubated with biotin ester for 1 h at room temperature, then plasma was extracted by centrifugation; from tissue; host or cells: dog whole blood

commercial human plasma = experiment: Kinetic studies using HPLC, reaction in commercial human plasma; assay type: biochemical; details: 100 μM in commercial human plasma
Procedure: as §1
FIG. 12 plots the rate of appearance of the leaving group, HO-Ph-CO-FlYEE-NH2, vs. time (seconds) as a result of the reaction of 100 μM biotin-OPh-CO-FlYEE-NH2 in commercial human plasma. Due to overlapping peaks in the HPLC chromatogram, the rate of disappearance of biotin-OPh-CO-FlYEE-NH2 cannot be determined.

pig albumin = molecular target: T4, pig albumin (Sus scrofa, UniProt P08835); experiment: Biotinylation of whole blood; SDS-PAGE and immunoblot with peroxidase labeled streptavidin; assay type: biochemical; details: samples of whole blood
T4 construct: Whole blood was incubated with biotin ester for 1 h at room temperature, then plasma was extracted by centrifugation; from tissue; host or cells: pig whole blood

[6] = Hydrolysis in PBS followed by HPLC; assay type: physicochemical; details: pH 7.4, RT (FIG. 13), read-out: half-life of hydrolysis of the phenol ester (converted)
Description: as §1

T3 sequence (P49822 25-608): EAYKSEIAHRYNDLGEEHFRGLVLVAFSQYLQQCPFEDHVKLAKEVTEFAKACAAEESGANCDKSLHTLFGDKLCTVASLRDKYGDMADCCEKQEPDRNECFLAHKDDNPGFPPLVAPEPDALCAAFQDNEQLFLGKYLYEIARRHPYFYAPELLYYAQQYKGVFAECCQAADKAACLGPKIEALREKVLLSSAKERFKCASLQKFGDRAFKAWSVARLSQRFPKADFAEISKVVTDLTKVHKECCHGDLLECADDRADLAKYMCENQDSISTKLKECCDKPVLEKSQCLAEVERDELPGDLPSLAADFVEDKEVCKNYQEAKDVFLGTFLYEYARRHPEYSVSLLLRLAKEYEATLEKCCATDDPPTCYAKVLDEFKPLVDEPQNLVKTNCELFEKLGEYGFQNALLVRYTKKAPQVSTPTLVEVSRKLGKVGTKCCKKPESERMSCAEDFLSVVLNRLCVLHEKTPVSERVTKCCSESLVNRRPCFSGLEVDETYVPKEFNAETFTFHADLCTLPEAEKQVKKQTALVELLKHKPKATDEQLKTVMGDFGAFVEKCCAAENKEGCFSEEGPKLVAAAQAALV
T4 sequence (P08835 25-607): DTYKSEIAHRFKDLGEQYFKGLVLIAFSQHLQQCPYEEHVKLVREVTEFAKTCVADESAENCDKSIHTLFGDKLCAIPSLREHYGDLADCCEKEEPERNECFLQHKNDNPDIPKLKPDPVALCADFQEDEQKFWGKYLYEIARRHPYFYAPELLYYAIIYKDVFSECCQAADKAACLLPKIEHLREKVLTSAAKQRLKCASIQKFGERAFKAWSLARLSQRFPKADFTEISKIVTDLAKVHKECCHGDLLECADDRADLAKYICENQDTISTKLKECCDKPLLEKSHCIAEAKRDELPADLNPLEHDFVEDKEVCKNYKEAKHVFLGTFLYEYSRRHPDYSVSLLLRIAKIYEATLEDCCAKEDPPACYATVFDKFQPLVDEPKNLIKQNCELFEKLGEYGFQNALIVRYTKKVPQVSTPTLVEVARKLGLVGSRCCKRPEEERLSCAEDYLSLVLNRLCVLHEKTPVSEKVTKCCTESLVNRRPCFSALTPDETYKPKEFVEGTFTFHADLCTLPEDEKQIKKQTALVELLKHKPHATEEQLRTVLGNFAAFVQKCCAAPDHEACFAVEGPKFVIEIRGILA

Compound: HO-Ph-CO-FlYEE-NH2 ({Benzoyl(4-OH)}-F[dL]YEE-NH2) [leaving group liberated from biotin-OPh-CO-FlYEE-NH2]
- direct competition with biotin-OPh-CO-FlYEE-NH2 for HSA (FIG. 8) (fraction V HSA [1]; 0-100 molar excess, 44 μM biotin-OPh-CO-FlYEE-NH2, 15 μM HSA, 1 h at 37° C.): occupies a specific binding site on HSA
- effect of prior incubation with HSA on binding of biotin-OPh-CO-FlYEE-NH2 (FIG. 9) (fraction V HSA [1]; 0 to 50 molar excess incubated with 15 μM HSA for 1 h, then 44 μM biotin-OPh-CO-FlYEE-NH2 1 h at 37° C.): prevents binding of biotin-OPh-CO-FlYEE-NH2
- effect of competition on rate of reaction (fraction V HSA [1]; between 1 to 5 molar excess of HO-Ph-CO-FlYEE-NH2): very minor effect on the rate of reaction

Compound: LC-biotin-OPh-CO-FlYEE-NH2
- lysine residue of HSA where LC-biotin is attached (HSA [2]): Lys519

Compound: biotin-OPh-CO—NH2 [reference compound]
- rate of biotin addition (optical density vs time, FIG. 10) (HSA [3]): on the base line
- half-reaction (fraction V HSA [4]): about 330 min
- selectivity of labeling (immunoblot, FIG. 7) [5]: does not label selectively

Compound: CC(C)C[C@@H](NC(=O)[C@H](Cc1ccccc1)NC(=O)c1ccc(OC(=O)CCCC[C@@H]2SC[C@@H]3NC(=O)N[C@@H]32)cc1)C(=O)N[C@@H](Cc1ccc(O)cc1)C(=O)N[C@@H](CCC(=O)O)C(=O)N[C@@H](CCC(=O)O)C(N)=O [biotin-OPh-CO-FlYEE-NH2] (X1-F[dL]YEE-NH2)
- rate of biotin addition (optical density vs time, FIG. 10) (HSA [3]): accelerated rate of biotin addition
- half-reaction (fraction V HSA [4]): about 125 min
- specificity of labeling for dog albumin (immunoblot) (dog albumin): not for pig or dog albumin
- half-reaction (commercial human plasma): about 6 min
- portion reacted with protein target (commercial human plasma; after five minutes (FIG. 12)): more than half
- specificity of labeling for pig albumin (immunoblot) (pig albumin): not for pig or dog albumin
- half-life [6]: ~7.2 days
